# Data: ChEMBL document CHEMBL5030568, “Design and Evaluation of Bispidine-Based SARS-CoV-2 Main Protease Inhibitors” (ACS Med Chem Lett, 2022)
# pIC50: −log10 of the molar value.
# How the values were obtained:
# [1] = Inhibition of SARS coronavirus 2 3 main viral protease 3-chymotrypsin-like activity expressed in Escherichia coli using Dabcyl-VNSTLQSGLRK(FAM)MA as substrate measured by fluorescence intensity assay; set-up: species or system Severe acute respiratory syndrome coronavirus 2
# HEK-293T = assay: Cytotoxicity against human HEK293T cells assessed as reduction in cell viability; type: cell-based
SMILES,pIC50 [1],pIC50 (HEK-293T)
CC(C)(C)OC(=O)Cn1cc(CN2CC3(C)CN(Cc4cn(CC(=O)OC(C)(C)C)nn4)CC(C)(C2)C3=O)nn1,5.69,3.33
Cn1nc(C(=O)N2CC3(C)CN(C(=O)c4nn(C)c5c4CCc4ccccc4-5)CC(C)(C2)C3=O)c2c1-c1ccccc1CC2,6.12,< 3.10
CC(C)(C)OC(=O)NCCn1cc(CN2CC3(C)CN(Cc4cn(CCNC(=O)OC(C)(C)C)nn4)CC(C)(C2)C3=O)nn1,6.08,3.39
Cn1nc(C(=O)N2CC3(C)CN(C(=O)c4cc(-c5cccs5)n(C)n4)CC(C)(C2)C3=O)cc1-c1cccs1,5.30,3.34
C#CCN1CC2(C)CN(CC#C)CC(C)(C1)C2=O,5.06,< 3.00
CC12CN(C(=O)c3cc(-c4ccccc4)n(-c4ccccc4)n3)CC(C)(CN(C(=O)c3cc(-c4ccccc4)n(-c4ccccc4)n3)C1)C2=O,5.85,< 3.15
Cc1cc(CN2CC3(C)CN(Cc4cc(C)no4)CC(C)(C2)C3=O)on1,5.28,< 3.15
CC12CN(CCN(CC(=O)O)CC(=O)O)CC(C)(CN(CCN(C(=O)O)C(=O)O)C1)C2=O,4.47,3.59
CC12CN(C(=O)OC(C)(C)C)CC(C)(CN(C(=O)OC(C)(C)C)C1)C2,4.75,3.52
CC(C)Cc1ccc(C(C)C(=O)O)cc1 (stereo not given) [IBUPROFEN],< 3.30,–
CC(=O)N1CC2(C)CN(C(C)=O)CC(C)(C1)C2=O,4.73,< 3.00
CC12CN(CC#N)CC(C)(CN(CC#N)C1)C2=O,5.26,< 3.15
CCOC(=O)c1n[nH]cc1-n1cc(CN2CC3(C)CN(Cc4cn(-c5c[nH]nc5C(=O)OCC)nn4)CC(C)(C2)C3=O)nn1,4.79,< 3.15
CC12CN(C(=O)/C=C/c3ccccc3)CC(C)(CN(C(=O)/C=C/c3ccccc3)C1)C2,4.33,3.60
CC12CN(C(=O)c3ccccc3)CC(C)(CN(C(=O)c3ccccc3)C1)C2=O,5.48,3.16
CC12CN(CC(=O)O)CC(C)(CN(CC(=O)O)C1)C2=O,5.15,< 3.00
CC(C)(C)OC(=O)N1CC2(C)CN(C(=O)OC(C)(C)C)CC(C)(C1)C2=O,5.23,< 3.00
CC12CN(Cc3cn(Cc4ccccc4)nn3)CC(C)(CN(Cc3cn(Cc4ccccc4)nn3)C1)C2=O,5.66,3.25
Cn1nc(C(=O)N2CC3(C)CN(C(=O)c4nn(C)c5c4Cc4ccccc4-5)CC(C)(C2)C3=O)c2c1-c1ccccc1C2,4.89,< 3.10
CC12CNCC(C)(CNC1)C2=O,5.59,< 3.00
CC12CN(C(=O)/C=C/c3ccccc3)CC(C)(CN(C(=O)/C=C/c3ccccc3)C1)C2=O,5.32,< 3.00
Cn1nc(C(=O)N2CC3(C)CN(C(=O)c4cc(-c5ccccc5)n(C)n4)CC(C)(C2)C3=O)cc1-c1ccccc1,5.84,< 3.05
CC12CN(Cc3ccccc3)CC(C)(CN(Cc3ccccc3)C1)C2=O,6.05,3.44
CCOC(=O)c1cc(-n2cc(CN3CC4(C)CN(Cc5cn(-c6cc(C(=O)OCC)n[nH]6)nn5)CC(C)(C3)C4=O)nn2)[nH]n1,4.87,–
C#CC(=O)N1CC2(C)CN(C(=O)C#C)CC(C)(C1)C2=O,5.26,4.24
C=CC(=O)N1CC2(C)CN(C(=O)C=C)CC(C)(C1)C2,4.00,< 3.00
